Measured values reported in patent publication US20250332178A1, “METHODS OF TREATING MYCOBACTERIAL INFECTIONS USING TETRACYCLINE COMPOUNDS” (priority 2018, published 2025).
In brackets after ≈: the same amount, converted by molar mass.

Columns and labels:
[1] = MIC by broth microdilution in CAMHB, clinical isolates; assay type: cell-based, Mycobacterium chelonae
[2] = tested on: M. abscessus; details: strains of M. abscessus; Wallace et al.; cited from earlier work
[3] = tested on: M. abscessus subsp. abscessus CIP 104536; assay: MIC according to CLSI guidelines; details: Mycobacteroides abscessus, CIP104536, read-out: Minimal Inhibitory Concentration (MIC)
Protocol: Vials with M. abscessus suspensions were stored at −80° C. Cultures on solid medium were grown on Mueller Hinton II agar (BD), supplemented with 10% OADC and 0.5% glycerol for 10 days at 37° C. with 5% CO2.

[4] = 52 patients, M. abscessus and M. chelonae infections; Wallace et al.; cited from earlier work
[5] = tested on: M. abscessus subsp. abscessus CIP 104536; assay: Time-kill kinetics assay; assay type: cell-based
Protocol: Briefly, M. abscessus cultures were exposed to antimicrobial drugs at 4-fold increasing concentrations for 7 days at 37° C. under shaking conditions at 96 rpm. […] The drug concentrations ranged from 0.063 to 256 mg/L for both compounds. […] At day 1, 3 and 7 during drug exposure, samples were collected, centrifuged at 14000 xg to avoid anti-NTM drug carry over, serially diluted (10-fold, 10^0-10^7) and subcultured onto solid medium. […] The lower limit of detection was 5 cfu/mL (log 0.7). All experiments were performed in duplicate. Time-kill curves, as well as concentration-effect curves were generated.

[6] = Intra-pulmonary steady-state concentrations (plasma, ELF, alveolar cells) after multiple IV doses in healthy adult subjects; assay type: in vivo, human; details: model-computed
Protocol: The remaining 20 subjects received tigecycline as 1 intravenous dose of 100 mg administered as a 30 minute infusion at t=0, followed by 6 intravenous doses of 50 mg administered as 30 minute infusions at t=12, 24, 36, 48, 60, and 72 hours. A study completion visit was conducted on the day following the final test article dose. There was a final follow-up assessment 7 to 14 days following the subject's last dose of test article which may be completed by telephone contact or other interactive technology unless an examination was needed to evaluate adverse events or abnormalities noted at the study completion visit.
Plasma PK samples were collected pre-dose and at 0.5, 1, 1.5, 2, 3, 4, 6, 8, 12 and 24 hours post-dose on day 4. […] One BAL sample was collected from each subject on day 4. Subjects were randomized to one of the following collection times: 0.5, 1, 2, 4, 8, 12 or 24 hours post-dose.

SMILES: CN(C)c1cc(NC(=O)CNC(C)(C)C)c(O)c2c1C[C@H]1C[C@H]3[C@H](N(C)C)C(O)=C(C(N)=O)C(=O)[C@@]3(O)C(O)=C1C2=O [Tigecycline, tigecycline]
- MIC90 [1]: 0.125 mg/L (≈ 0.213 µM)
- MIC ([1]; isolate No. 1, MC 7323): 0.125 mg/L (≈ 0.213 µM)
- MIC ([1]; isolate No. 2, MC 7534): 0.03 mg/L (≈ 0.0512 µM)
- MIC ([1]; isolate No. 3, MC 7368): 0.03 mg/L (≈ 0.0512 µM)
- MIC ([1]; isolate No. 4, MC 7514): 0.06 mg/L (≈ 0.102 µM)
- MIC ([1]; isolate No. 5, MC 7584): 0.06 mg/L (≈ 0.102 µM)
- MIC ([1]; isolate No. 6, MC 7192): 0.03 mg/L (≈ 0.0512 µM)
- MIC ([1]; isolate No. 7, MC 7466): 0.03 mg/L (≈ 0.0512 µM)
- MIC ([1]; isolate No. 8, MC 7533): 0.125 mg/L (≈ 0.213 µM)
- MIC ([1]; isolate No. 9, MC 7579): 0.03 mg/L (≈ 0.0512 µM)
- MIC ([1]; isolate No. 10, MC 7614): 0.125 mg/L (≈ 0.213 µM)
- MIC ([1]; isolate No. 11, MC 7414): 0.06 mg/L (≈ 0.102 µM)
- MIC ([1]; isolate No. 12, MC 7313): 0.25 mg/L (≈ 0.427 µM)
- MIC ([1]; isolate No. 13, MC 7281): 0.5 mg/L (≈ 0.854 µM)
- MIC ([1]; isolate No. 14, MC 7328): 0.015 mg/L (≈ 0.0256 µM)
- MIC ([1]; isolate No. 15, MC 7294): 0.125 mg/L (≈ 0.213 µM)
- MIC ([1]; isolate No. 16, MC 14-S-03): 0.5 mg/L (≈ 0.854 µM)
- MIC ([1]; isolate No. 17, MC 14-S-04): 0.06 mg/L (≈ 0.102 µM)
- MIC ([1]; isolate No. 18, MC 14-S-05): 0.125 mg/L (≈ 0.213 µM)
- MIC ([1]; isolate No. 19, MC 14-S-06): 0.03 mg/L (≈ 0.0512 µM)
- MIC ([1]; isolate No. 20, MC 14-S-07): 0.06 mg/L (≈ 0.102 µM)
- MIC ([1]; isolate No. 21, MC 35757): 0.125 mg/L (≈ 0.213 µM)
- MIC ([1]; isolate No. 22, MC 7302): 0.25 mg/L (≈ 0.427 µM)
- in vitro activity (in words) [2]: good activity
- MIC [3]: 4 mg/L (≈ 6.83 µM)
- dose reductions due to nausea, vomiting or anorexia [4]: Approximately half of the patients had dose reductions
- concentration for 1 log mycobacterial killing ([5]; after 7 days of exposure): 2.7 mg/L
- concentration for 2 log mycobacterial killing ([5]; after 7 days of exposure): 3.4 mg/L
- concentration for stasis (concentration-effect curve) ([5]; after 7 days of exposure): 2.2 mg/L
- concentrations showing mycobacterial killing ([5]; time-kill, up to 7 days exposure): ≥ 4 mg/L
- AUC ([6]; human, in vivo, compartment models, read-out: Total-drug AUC72-96, ELF (Median)): 2.59 µg·h/mL
- Kp ([6]; human, in vivo, read-out: Penetration Ratio: total-drug ELF AUC72-84 to free-drug plasma AUC72-84 (Median)): 1.87
- Free-drug AUC72-96, Plasma (Median) ([6]; compartment models): 1.38 µg·h/mL
